# Conditions: brain imaging
structure (smiles),measurement,value
"C[N+]1=C(C=CC=CC=C2N(CCCCCC(=O)ON3C(=O)CCC3=O)c3ccc4ccccc4c3C2(C)C)C(C)(C)c2c1ccc1ccccc21.[Cl-] [Cy5 dye, Cyanine5.5 NHS ester dye]","ability to cross the BBB, dye injected alone",could not on its own cross the BBB

# From publication PMC5651374 (Alzheimer's & Dementia : Translational Research & Clinical …, 2016)
